Results from patent US12209086B2, “FGFR3 inhibitor compounds” (ELI LILLY AND COMPANY, priority 2021, dated 2025).

The compounds below were run against T1, FGFR3 protein (Homo sapiens, UniProt P22607) (assay: FGFR3 enzyme assay (KinEASE-TK HTRF kinase assay)). Details: 0.25 nM enzyme, ATP at Km, 15 min pre-incubation on ice, 30 min at 30° C.
T1 construct: purchased Reaction Biology 1068
Format: biochemical
Method: FGFR3 and FGFR1 Enzyme Assay
Enzyme activity was monitored using the KinEASE™-TK Assay Kit (Cisflio, Cat. No. 62TK0PEC) according to the manufacturer's instructions. All assays were performed at the respective KmATP for each kinase in KinEASE™ Kinase Buffer.
Titration of compounds were performed in a half-log manner in 100% dimethyl sulfoxide (DMSO) starting at 1 uM. Prior to the initiation of the reaction by adenosine triphosphate (ATP), FGFR1 protein and compounds were pre-incubated for 15 minutes at room temperature, and FGFR3 protein and compounds were pre-incubated on ice for 15 minutes. Reactions proceeded for 30 min at 30° C. Plates were quenched by the addition of the Anti-TK cryptate antibody/Streptavidin-XL665 mixture.
Ratios were converted to a percent of control (POC) using a ratiometric emission factor. One hundred POC was determined using no test compound, and 0 POC was determined in the presence of 1 uM of an appropriate control inhibitor.

T1 sequence (P22607 23-806): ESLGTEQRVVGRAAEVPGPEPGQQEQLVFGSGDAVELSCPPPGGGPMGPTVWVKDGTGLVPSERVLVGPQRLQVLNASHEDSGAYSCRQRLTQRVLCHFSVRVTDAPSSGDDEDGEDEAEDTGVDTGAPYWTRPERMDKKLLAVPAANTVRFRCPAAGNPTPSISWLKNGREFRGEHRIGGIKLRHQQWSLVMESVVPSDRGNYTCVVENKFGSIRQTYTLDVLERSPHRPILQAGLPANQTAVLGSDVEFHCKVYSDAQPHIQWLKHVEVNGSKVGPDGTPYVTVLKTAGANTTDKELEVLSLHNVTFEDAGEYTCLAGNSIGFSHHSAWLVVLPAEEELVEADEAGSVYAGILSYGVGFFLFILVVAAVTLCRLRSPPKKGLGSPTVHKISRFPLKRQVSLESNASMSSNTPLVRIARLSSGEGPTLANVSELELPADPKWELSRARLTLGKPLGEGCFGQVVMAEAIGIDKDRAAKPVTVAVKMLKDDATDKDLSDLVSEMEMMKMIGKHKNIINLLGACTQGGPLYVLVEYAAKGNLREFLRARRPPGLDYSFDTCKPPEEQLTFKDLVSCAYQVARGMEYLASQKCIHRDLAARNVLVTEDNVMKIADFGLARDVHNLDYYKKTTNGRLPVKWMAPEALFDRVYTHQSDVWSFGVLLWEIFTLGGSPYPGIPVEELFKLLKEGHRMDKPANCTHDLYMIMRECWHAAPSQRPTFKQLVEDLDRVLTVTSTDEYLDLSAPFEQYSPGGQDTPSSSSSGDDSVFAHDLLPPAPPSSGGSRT

With `Cc1c(-c2cc(OC(C)c3cncc4cc(F)ccc34)c3c(C#N)cnn3c2)nnn1C1CCN(C#N)CC1` (stereo not shown) [Example 21, 6-[1-(1-Cyano-4-piperidyl)-5-methyl-triazol-4-yl]-4-[1-(7-fluoro-4-isoquinolyl)ethoxy] pyrazolo[1,5-a] pyridine-3-carbonitrile] as the compound, how does the IC50 read?
Its IC50 is less than 50 nM.

How did the IC50 turn out when `Cc1c(-c2cc(OC(c3ccccn3)C(C)(C)C)n3c(C#N)cnc3c2)nnn1C1CCN(C#N)CC1` (single isomer, unassigned) [Example 264, 7-[1-(1-Cyano-4-piperidyl)-5-methyl-triazol-4-yl]-5-[2,2-dimethyl-1-(2-pyridyl)propoxy] imidazo[1,2-a]pyridine-3-carbonitrile] was run?
Its IC50 is less than 100 nM.

`Cc1c(-c2cc(OC(C)c3cc(C(F)(F)F)cnc3N3CCOCC3)c3c(C#N)cnn3c2)nnn1C1CCN(C#N)CC1` (stereo not shown) [Example 13, 6-[1-(1-Cyano-4-piperidyl)-5-methyl-triazol-4-yl]-4-[1-[2-morpholino-5-(trifluoromethyl)-3-pyridyl]ethoxy]pyrazolo [1,5-a]pyridine-3-carbonitrile] was tested. Which IC50 did it give?
Its IC50 is less than 100 nM.

`Cc1c(-c2cc(OC(C)c3ccccc3S(C)(=O)=O)c3c(C#N)cnn3c2)cnn1C1CCN(C#N)CC1` (single isomer, unassigned; isomer 2) [Example 77, 6-[1-(1-Cyano-4-piperidyl)-5-methyl-pyrazol-4-yl]-4-[1-(2-methylsulfonylphenyl)ethoxy]pyrazolo[1,5-a]pyridine-3-carbonitrile, Isomer 2] was tested. Which IC50 did it give?
Its IC50 is less than 100 nM.

Which IC50 does the source give for `Cc1c(-c2cc(O[C@H](C)c3ccccn3)n3c(C#N)cnc3c2)nnn1C1CCN(C#N)C(C2CC2)C1` (single isomer, unassigned) [Example 281] here?
Its IC50 is less than 50 nM.

How did the IC50 turn out when `Cc1c(-c2cc(OC(CF)c3ccc(F)cn3)c3c(C#N)cnn3c2)nnn1C1CCN(C#N)CC1` (stereo not shown) [Example 22, 6-[1-(1-Cyano-4-piperidyl)-5-methyl-triazol-4-yl]-4-[2-fluoro-1-(5-fluoro-2-pyridyl)ethoxy]pyrazolo [1,5-a]pyridine-3-carbonitrile] was run?
Its IC50 is less than 50 nM.

`CCC(Oc1cc(-c2nnn(C3CCN(C#N)CC3)c2C)cc2ncc(C#N)n12)c1ccc(F)cn1` (single isomer, unassigned; isomer 1) [Example 51, 7-[1-(1-Cyano-4-piperidyl)-5-methyl-triazol-4-yl]-5-[1-(5-fluoro-2-pyridyl)propoxy]imidazo[1,2-a]pyridine-3-carbonitrile, Isomer 1] was tested. Which IC50 did it give?
The IC50 was less than 50 nM.

How did the IC50 turn out when `Cc1c(-c2cc(O[C@H](C)c3ccc(F)cn3)n3c(C#N)cnc3c2)cnn1C1CCN(C#N)CC1` [Example 209] was run?
Its IC50 is less than 50 nM.

With `Cc1c(-c2cc(O[C@H](C)c3ccc(F)cn3)n3c(C#N)cnc3c2)nnn1C1CCN(C#N)CC1` [Example 170, 4-(4-[3-Cyano-5-[(1R)-1-(5-fluoropyridin-2-yl)ethoxy]imidazo[1,2-a]pyridin-7-yl]-5-methyl-1,2,3-triazol-1-yl)piperidine-1-carbonitrile] as the compound, how does the IC50 read?
Its IC50 is less than 50 nM.

With `COc1cc(-c2cnn(C3CCN(C4CN(C#N)C4(C)C)CC3)c2C)cn2ncc(C#N)c12` (single isomer, unassigned) [Example 173, 3-[4-(4-[3-Cyano-4-methoxypyrazolo[1,5-a]pyridin-6-yl]-5-methylpyrazol-1-yl)piperidin-1-yl]-2,2-dimethylazetidine-1-carbonitrile] as the compound, how does the IC50 read?
Its IC50 is less than 50 nM.

How did the IC50 turn out when `Cc1c(-c2cc(OC(c3ccc(F)cn3)C3(F)CC3)c3c(C#N)cnn3c2)nnn1C1CCN(C#N)CC1` (stereo not shown) [Example 26, 6-[1-(1-Cyano-4-piperidyl)-5-methyl-triazol-4-yl]-4-[(1-fluorocyclopropyl)-(5-fluoro-2-pyridyl)methoxy]pyrazolo [1,5-a]pyridine-3-carbonitrile] was run?
The IC50 was less than 50 nM.

With `COc1cc(-c2cnn(C3CC4(CCN(C#N)CC4)C3)c2C)cn2ncc(C#N)c12` [Example 171, 2-(4-[3-Cyano-4-methoxypyrazolo[1,5-a]pyridin-6-yl]-5-methylpyrazol-1-yl)-7-azaspiro[3.5]nonane-7-carbonitrile] as the compound, how does the IC50 read?
The IC50 was less than 50 nM.

With `Cc1c(-c2cc(O[C@H](C)c3ccccn3)n3c(C#N)cnc3c2)nnn1C1CCCN(C#N)CC1` (stereo partly drawn) [Example 257, 7-[1-(1-Cyanoazepan-4-yl)-5-methyl-triazol-4-yl]-5-[(1R)-1-(2-pyridyl)ethoxy] imidazo[1,2-a]pyridine-3-carbonitrile] as the compound, how does the IC50 read?
Its IC50 is less than 50 nM.

Which IC50 does the source give for `Cc1c(-c2cc(O[C@H](C)c3ccccn3)n3c(C#N)cnc3c2)nnn1C1CC2(CCN(C#N)CC2)C1` [Example 212, 7-[1-(7-Cyano-7-azaspiro[3.5]nonan-2-yl)-5-methyl-triazol-4-yl]-5-[(1R)-1-(2-pyridyl)ethoxy]imidazo [1,2-a]pyridine-3-carbonitrile] here?
The IC50 was less than 50 nM.

With `Cc1c(-c2cc(OC(CO)c3ccc(F)cn3)c3c(Cl)cnn3c2)nnn1C1CC(N2CCN(C#N)CC2)C1` (single isomer, unassigned) [Example 152, Cis-4-[3-[4-[3-Chloro-4-[1-(5-fluoro-2-pyridyl)-2-hydroxy-ethoxy]pyrazolo[1,5-a]pyridin-6-yl]-5-methyl-triazol-1-yl]cyclobutyl] piperazine-1-carbonitrile] as the compound, how does the IC50 read?
Its IC50 is less than 50 nM.

For `COc1cc(-c2cnn(C3CN([C@H]4CCCN(C#N)C4)C3)c2C)cn2ncc(C#N)c12` [Example 215, (3S)-3-[3-(4-[3-Cyano-4-methoxypyrazolo[1,5-a]pyridin-6-yl]-5-methylpyrazol-1-yl)azetidin-1-yl]piperidine-1-carbonitrile], which IC50 is on record?
Its IC50 is less than 50 nM.

Which IC50 does the source give for `Cc1c(-c2cc(O[C@H](C)C3CCC3)c3c(C#N)cnn3c2)cnn1C1CCN(C#N)CC1` [Example 195, 4-(4-[3-cyano-4-[(1R)-1-cyclobutylethoxy]pyrazolo[1,5-a]pyridin-6-yl]-5-methylpyrazol-1-yl)piperidine-1-carbonitrile] here?
Its IC50 is less than 50 nM.

Which IC50 does the source give for `COCC(Oc1cc(-c2nnn(C3CCN(C#N)CC3)c2C)cn2ncc(C#N)c12)c1ccc(F)cn1` (single isomer, unassigned; isomer 1) [Example 53, 6-[1-(1-Cyano-4-piperidyl)-5-methyl-triazol-4-yl]-4-[1-(5-fluoro-2-pyridyl)-2-methoxy-ethoxy]pyrazolo[1,5-a]pyridine-3-carbonitrile, Isomer 1] here?
The IC50 was less than 50 nM.

With `Cc1c(-c2cc(OC(C)c3cccc4cnsc34)c3c(C#N)cnn3c2)nnn1C1CCN(C#N)CC1` (single isomer, unassigned; isomer 1) [Example 79, 4-[1-(1,2-benzothiazol-7-yl)ethoxy]-6-[1-(1-cyano-4-piperidyl)-5-methyl-triazol-4-yl]pyrazolo[1,5-a]pyridine-3-carbonitrile, Isomer 1] as the compound, how does the IC50 read?
The IC50 was less than 50 nM.

Which IC50 does the source give for `COCC(Oc1cc(-c2nnn(C3CCN(C#N)CC3)c2C)cc2ncc(C#N)n12)c1ccc(F)cn1` (single isomer, unassigned; isomer 1) [Example 49, 7-[1-(1-Cyano-4-piperidyl)-5-methyl-triazol-4-yl]-5-[1-(5-fluoro-2-pyridyl)-2-methoxy-ethoxy]imidazo[1,2-a]pyridine-3-carbonitrile, Isomer 1] here?
The IC50 was less than 50 nM.

With `Cc1c(-c2cc(OC(C)c3cncc4ccccc34)c3c(C#N)cnn3c2)nnn1C1CCN(C#N)CC1` (stereo not shown) [Example 24, 6-[1-(1-Cyano-4-piperidyl)-5-methyl-triazol-4-yl]-4-[1-(4-isoquinolyl)ethoxy] pyrazolo[1,5-a] pyridine-3-carbonitrile] as the compound, how does the IC50 read?
The IC50 was less than 50 nM.

How did the IC50 turn out when `Cc1c(-c2cc(N[C@H](C)c3ccccn3)c3c(C#N)cnn3c2)cnn1C1CCN(C2CN(C#N)C2(C)C)CC1` (single isomer, unassigned) [Example 94] was run?
The IC50 was less than 50 nM.

For `Cc1c(-c2cc(O[C@H](C)c3ccnn3C)c3c(C#N)cnn3c2)cnn1C1CCN(C#N)CC1` [Example 189, 4-(4-[3-Cyano-4-[(1R)-1-(2-methylpyrazol-3-yl)ethoxy]pyrazolo [1,5-a]pyridin-6-yl]-5-methylpyrazol-1-yl)piperidine-1-carbonitrile], which IC50 is on record?
The IC50 was less than 50 nM.

Which IC50 does the source give for `Cc1c(-c2cc(OCC(O)c3ccc(F)cn3)c3c(Cl)cnn3c2)nnn1C1CCN(C#N)CC1` (single isomer, unassigned) [Example 155, 4-[4-[3-Chloro-4-[2-(5-fluoro-2-pyridyl)-2-hydroxy-ethoxy]pyrazolo[1,5-a]pyridin-6-yl]-5-methyl-triazol-1-yl]piperidine-1-carbonitrile] here?
The IC50 was less than 50 nM.

With `Cc1c(-c2cc(O[C@H](C)c3ccccn3)n3c(C#N)cnc3c2)cnn1C1CN(C2CC3CCC2N3C#N)C1` (stereo partly drawn) [Example 226, 7-[1-[1-(7-Cyano-7-azabicyclo[2.2.1]heptan-2-yl)azetidin-3-yl]-5-methyl-pyrazol-4-yl]-5-[(1R)-1-(2-pyridyl)ethoxy]imidazo [1,2-a]pyridine-3-carbonitrile] as the compound, how does the IC50 read?
Its IC50 is less than 50 nM.

How did the IC50 turn out when `COc1cc(-c2cnn(C3CN([C@@H]4CCN(C#N)C4)C3)c2C)cn2ncc(C#N)c12` [Example 222, (3R)-3-[3-(4-[3-Cyano-4-methoxypyrazolo[1,5-a]pyridin-6-yl]-5-methylpyrazol-1-yl)azetidin-1-yl]pyrrolidine-1-carbonitrile] was run?
Its IC50 is less than 50 nM.

How did the IC50 turn out when `Cc1c(-c2cc(OCC(O)c3ccc(F)cn3)c3c(Cl)cnn3c2)nnn1C1CCN(C#N)CC1` (single isomer, unassigned) [Example 154, 4-[4-[3-Chloro-4-[2-(5-fluoro-2-pyridyl)-2-hydroxy-ethoxy]pyrazolo[1,5-a]pyridin-6-yl]-5-methyl-triazol-1-yl]piperidine-1-carbonitrile] was run?
Its IC50 is less than 50 nM.

How did the IC50 turn out when `Cc1c(-c2cc(OC(C)c3ccccc3C(=O)N(C)C)c3c(C#N)cnn3c2)nnn1C1CCN(C#N)CC1` (single isomer, unassigned; isomer 2) [Example 75, 2-[1-[3-cyano-6-[1-(1-cyano-4-piperidyl)-5-methyl-triazol-4-yl]pyrazolo[1,5-a]pyridin-4-yl]oxyethyl]-N,N-dimethyl-benzamide, Isomer 2] was run?
Its IC50 is less than 100 nM.
